Data on 22 compounds can be found in US20240374590A1, “COMPOSITIONS AND METHODS FOR TREATING CANCER” (A2A PHARMACEUTICALS, INC., priority 2021, published 2024).

Where only a bound is given, the exact number is not on record here.

As usually defined, the IC50 is the concentration that inhibits the measured activity by half.

Assay [1] has as its system JIMT-1 human breast cancer cell line. As to the kind of experiment: Cell viability assay (SRB) in JIMT-1. The format is cell-based. The following applies: 72 hours after treatment, read-out: JIMT1 IC50. The procedure, abridged: (§1)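 JIMT-1 (3×10^3 cells/well) and HCT-116 (4×10^3 cells/well) cells were seeded and treated with inhibitors at several concentrations 24 h later. Viability was read by sulforhodamine B staining 72 h after treatment. JIMT-1 was grown in DMEM and HCT-116 in McCoy's 5A, both with FBS.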

For assay [2], the system named is HCT-116 human colon carcinoma cell line. The assay is described as follows: Cell viability assay (SRB) in HCT-116. The format is cell-based. The following applies: 72 hours after treatment, read-out: HCT116 IC50. The essentials:
as §1

Turning to `C[C@@H]1CN(c2nccc(Nc3cc(-c4ccc5c(c4)CCC5)[nH]n3)n2)C[C@H](C)O1` [Compound 211, N-(5-(2,3-dihydro-1H-inden-5-yl)-1H-pyrazol-3-yl)-2-((2R,6S)-2,6-dimethylmorpholino)pyrimidin-4-amine], the IC50 in assay [1] amounted to 43 nM; in assay [2], 39 nM.
As to `C[C@@H]1CN(c2nccc(Nc3cc(-c4ccc5c(ccn5C)c4)n[nH]3)n2)C[C@H](C)O1` [Compound 217, 2-((2R,6S)-2,6-dimethylmorpholino)-N-(3-(1-methyl-1H-indol-5-yl)-1H-pyrazol-5-yl)pyrimidin-4-amine], the IC50 in assay [1] was determined as 6 nM; in assay [2], 5 nM.
For `COc1cc(F)c(-c2cc(Nc3ccnc(N4C[C@@H](C)O[C@@H](C)C4)n3)[nH]n2)cc1F` [Compound 218, N-(3-(2,5-difluoro-4-methoxyphenyl)-1H-pyrazol-5-yl)-2-((2R,6S)-2,6-dimethylmorpholino)pyrimidin-4-amine] the same measures were 13 nM and 20 nM.
For `CC1COCC(C)N1c1nccc(Nc2cc(-c3ccc(OC(F)F)cc3)n[nH]2)n1` (centres unmarked) [Compound 227, N-(3-(4-(difluoromethoxy)phenyl)-1H-pyrazol-5-yl)-2-(3,5-dimethylmorpholino)pyrimidin-4-amine] the same measures were 1430 nM and 2260 nM.
For `CC1COCCN1c1nccc(Nc2cc(-c3ccc(OC(F)F)cc3)n[nH]2)n1` (centres unmarked) [Compound 229, N-(3-(4-(difluoromethoxy)phenyl)-1H-pyrazol-5-yl)-2-(3-methylmorpholino)pyrimidin-4-amine] the same measures were 96 nM and 62 nM.
Consider `C[C@@H]1CN(c2nccc(Nc3cc(-c4ccc(OC(F)F)cc4)n[nH]3)n2)C[C@@H](C)O1` [Compound 240, N-(3-(4-(difluoromethoxy)phenyl)-1H-pyrazol-5-yl)-2-((2R,6R)-2,6-dimethylmorpholino)pyrimidin-4-amine], for which the figures for the IC50 in assay [1] and in assay [2] were 103 nM and 1060 nM, respectively.
For `C[C@H]1CN(c2nccc(Nc3cc(-c4ccc(OC(F)F)cc4)n[nH]3)n2)C[C@H](C)O1` [Compound 241, N-(3-(4-(difluoromethoxy)phenyl)-1H-pyrazol-5-yl)-2-((25,6S)-2,6-dimethylmorpholino)pyrimidin-4-amine] the same measures were 46 nM and 1810 nM.
Turning to `FC(F)Oc1ccc(-c2cc(Nc3ccnc(N4CCCC4)n3)[nH]n2)cc1` [Compound 242, N-(3-(4-(difluoromethoxy)phenyl)-1H-pyrazol-5-yl)-2-(pyrrolidin-1-yl)pyrimidin-4-amine], the IC50 in assay [1] came to 110 nM; in assay [2] it was 1490 nM.
In the case of `FC(F)Oc1ccc(-c2cc(Nc3ccnc(N4CCCCC4)n3)[nH]n2)cc1` [Compound 243, N-(3-(4-(difluoromethoxy)phenyl)-1H-pyrazol-5-yl)-2-(piperidin-1-yl)pyrimidin-4-amine], the IC50 in assay [1] turned out to be 17 nM; in assay [2], 53 nM.
As for `FC(F)Oc1ccc(-c2cc(Nc3ccnc(N4CCC4)n3)[nH]n2)cc1` [Compound 244, 2-(azetidin-1-yl)-N-(3-(4-(difluoromethoxy)phenyl)-1H-pyrazol-5-yl)pyrimidin-4-amine], the IC50 in assay [1] was found to be 46 nM; in assay [2], 1120 nM.
For `CC1CN(c2nccc(Nc3cc(-c4ccc(OC(F)F)cc4)n[nH]3)n2)C1` [Compound 245, N-(3-(4-(difluoromethoxy)phenyl)-1H-pyrazol-5-yl)-2-(3-methylazetidin-1-yl)pyrimidin-4-amine], the IC50 is 47 nM in assay [1] and at least 10000 nM in assay [2].
For `FC1CN(c2nccc(Nc3cc(-c4ccc(OC(F)F)cc4)n[nH]3)n2)C1` [Compound 246, N-(3-(4-(difluoromethoxy)phenyl)-1H-pyrazol-5-yl)-2-(3-fluoroazetidin-1-yl)pyrimidin-4-amine], in that order: 71 nM and at least 10000 nM.
In the case of `CC1(C)CN(c2nccc(Nc3cc(-c4ccc(OC(F)F)cc4)n[nH]3)n2)C1` [Compound 247, N-(3-(4-(difluoromethoxy)phenyl)-1H-pyrazol-5-yl)-2-(3,3-dimethylazetidin-1-yl)pyrimidin-4-amine], the IC50 in assay [1] was 142 nM; in assay [2] it was at least 10000 nM.
For `CC1(F)CN(c2nccc(Nc3cc(-c4ccc(OC(F)F)cc4)n[nH]3)n2)C1` [Compound 248, N-(3-(4-(difluoromethoxy)phenyl)-1H-pyrazol-5-yl)-2-(3-fluoro-3-methylazetidin-1-yl)pyrimidin-4-amine], in that order: 1560 nM and at least 10000 nM.
On to `FC(F)Oc1ccc(-c2cc(Nc3ccnc(N4CC(F)(F)C4)n3)[nH]n2)cc1` [Compound 249, 2-(3,3-difluoroazetidin-1-yl)-N-(3-(4-(difluoromethoxy)phenyl)-1H-pyrazol-5-yl)pyrimidin-4-amine], for which the IC50 in assay [1] was 305 nM; in assay [2], at least 10000 nM.
For `FC(F)Oc1ccc(-c2cc(Nc3ccnc(N4CCC(F)(F)C4)n3)[nH]n2)cc1` [Compound 252, N-(3-(4-(difluoromethoxy)phenyl)-1H-pyrazol-5-yl)-2-(3,3-difluoropyrrolidin-1-yl)pyrimidin-4-amine], in that order: 122 nM and 1260 nM.
Regarding `FC(F)Oc1ccc(-c2cc(Nc3ccnc(N4CCC(F)(F)CC4)n3)[nH]n2)cc1` [Compound 253, N-(3-(4-(difluoromethoxy)phenyl)-1H-pyrazol-5-yl)-2-(4,4-difluoropiperidin-1-yl)pyrimidin-4-amine], the results for the IC50 in assay [1] and in assay [2] were 148 nM and 1560 nM, respectively.
With `FC(F)Oc1ccc(-c2cc(Nc3ccnc(N4CCCOCC4)n3)[nH]n2)cc1` [Compound 255, N-(3-(4-(difluoromethoxy)phenyl)-1H-pyrazol-5-yl)-2-(1,4-oxazepan-4-yl)pyrimidin-4-amine], the figures for the IC50 in assay [1] and in assay [2] were 279 nM and 312 nM, respectively.
As to `FC(F)Oc1ccc(-c2cc(Nc3ccnc(N4C5CCC4COC5)n3)[nH]n2)cc1` [Compound 259, 2-(3-oxa-8-azabicyclo[3.2.1]octan-8-yl)-N-(3-(4-(difluoromethoxy)phenyl)-1H-pyrazol-5-yl)pyrimidin-4-amine], the IC50 in assay [1] was 65 nM; in assay [2], at least 10000 nM.
For `FC(F)Oc1ccc(-c2cc(Nc3ccnc(N4CC5CCC(C4)O5)n3)[nH]n2)cc1` [Compound 260, 2-(8-oxa-3-azabicyclo[3.2.1]octan-3-yl)-N-(3-(4-(difluoromethoxy)phenyl)-1H-pyrazol-5-yl)pyrimidin-4-amine], in that order: 648 nM and 8980 nM.
For `FC(F)Oc1ccc(-c2cc(Nc3ccnc(N4C[C@@H]5C[C@H]4CO5)n3)[nH]n2)cc1` [Compound 261, 2-((1S,4S)-2-oxa-5-azabicyclo[2.2.1]heptan-5-yl)-N-(3-(4-(difluoromethoxy)phenyl)-1H-pyrazol-5-yl)pyrimidin-4-amine], the figures for the IC50 in assay [1] and in assay [2] were 400 nM and 7200 nM, respectively.
For `FC(F)Oc1ccc(-c2cc(Nc3ccnc(N4C[C@H]5C[C@@H]4CO5)n3)[nH]n2)cc1` [Compound 262, 2-((1R,4R)-2-oxa-5-azabicyclo[2.2.1]heptan-5-yl)-N-(3-(4-(difluoromethoxy)phenyl)-1H-pyrazol-5-yl)pyrimidin-4-amine], in that order: 329 nM and at least 10000 nM.
